From patent US11878975B2, “Substituted indole compounds useful as TLR inhibitors” (BRISTOL-MYERS SQUIBB COMPANY, priority 2017, dated 2024) come the findings set out here.

Assay type in all cases: cell-based
Experiment [1] concerns the target T1, human TLR9 (Homo sapiens, UniProt Q9NR96).
T1 construct: host or cells: HEK-Blue cells
T1 sequence (Q9NR96 26-1032): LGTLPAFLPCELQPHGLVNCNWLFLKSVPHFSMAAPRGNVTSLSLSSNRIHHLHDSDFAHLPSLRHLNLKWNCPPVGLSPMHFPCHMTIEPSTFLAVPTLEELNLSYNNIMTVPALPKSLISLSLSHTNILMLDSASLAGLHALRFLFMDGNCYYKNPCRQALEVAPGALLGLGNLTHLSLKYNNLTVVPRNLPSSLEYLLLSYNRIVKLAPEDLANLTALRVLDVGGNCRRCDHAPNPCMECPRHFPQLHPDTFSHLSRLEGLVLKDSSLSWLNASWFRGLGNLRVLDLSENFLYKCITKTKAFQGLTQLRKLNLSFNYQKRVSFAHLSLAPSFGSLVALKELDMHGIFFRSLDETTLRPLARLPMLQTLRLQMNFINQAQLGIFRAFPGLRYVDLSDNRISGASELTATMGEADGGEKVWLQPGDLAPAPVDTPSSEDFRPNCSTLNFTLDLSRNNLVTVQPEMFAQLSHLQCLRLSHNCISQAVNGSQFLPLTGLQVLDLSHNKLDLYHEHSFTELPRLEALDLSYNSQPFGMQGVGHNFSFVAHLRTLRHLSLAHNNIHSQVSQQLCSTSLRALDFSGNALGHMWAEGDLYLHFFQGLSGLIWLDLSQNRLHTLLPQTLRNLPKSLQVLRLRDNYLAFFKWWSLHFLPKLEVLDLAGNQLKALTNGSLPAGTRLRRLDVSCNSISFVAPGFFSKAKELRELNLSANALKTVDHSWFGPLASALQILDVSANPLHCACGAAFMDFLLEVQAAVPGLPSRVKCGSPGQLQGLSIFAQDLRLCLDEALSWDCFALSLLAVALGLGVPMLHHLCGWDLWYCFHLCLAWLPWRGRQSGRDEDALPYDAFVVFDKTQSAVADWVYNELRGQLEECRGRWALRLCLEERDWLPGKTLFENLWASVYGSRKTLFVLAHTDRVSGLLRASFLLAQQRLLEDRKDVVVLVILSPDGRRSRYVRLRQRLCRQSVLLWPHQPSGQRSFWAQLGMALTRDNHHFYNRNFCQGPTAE
Briefly: TLR9 inhibition reporter assay (HEK-Blue cells, SEAP reporter, ODN2006 stimulation). The settings on record: HEK-Blue cells overexpressing human TLR9, SEAP reporter, ODN2006 5 nM. The gist of the method:
(§1)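 HEK-Blue cells with NF-κB/AP-1-driven SEAP reporter, pre-treated 30 min at room temperature with compound (0.05 nM-50 μM). Stimulants: gardiquimod 7.5 μM (TLR7), R848 15.9 μM (TLR8) or ODN2006 5 nM (TLR9). SEAP measured after 22 h at 37° C.; percent inhibition versus agonist-plus-DMSO and known-inhibitor wells.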

In experiment [2] the target is T2, human TLR7 (Homo sapiens, UniProt Q9NYK1).
T2 construct: host or cells: HEK-Blue cells
T2 sequence (Q9NYK1 27-1049): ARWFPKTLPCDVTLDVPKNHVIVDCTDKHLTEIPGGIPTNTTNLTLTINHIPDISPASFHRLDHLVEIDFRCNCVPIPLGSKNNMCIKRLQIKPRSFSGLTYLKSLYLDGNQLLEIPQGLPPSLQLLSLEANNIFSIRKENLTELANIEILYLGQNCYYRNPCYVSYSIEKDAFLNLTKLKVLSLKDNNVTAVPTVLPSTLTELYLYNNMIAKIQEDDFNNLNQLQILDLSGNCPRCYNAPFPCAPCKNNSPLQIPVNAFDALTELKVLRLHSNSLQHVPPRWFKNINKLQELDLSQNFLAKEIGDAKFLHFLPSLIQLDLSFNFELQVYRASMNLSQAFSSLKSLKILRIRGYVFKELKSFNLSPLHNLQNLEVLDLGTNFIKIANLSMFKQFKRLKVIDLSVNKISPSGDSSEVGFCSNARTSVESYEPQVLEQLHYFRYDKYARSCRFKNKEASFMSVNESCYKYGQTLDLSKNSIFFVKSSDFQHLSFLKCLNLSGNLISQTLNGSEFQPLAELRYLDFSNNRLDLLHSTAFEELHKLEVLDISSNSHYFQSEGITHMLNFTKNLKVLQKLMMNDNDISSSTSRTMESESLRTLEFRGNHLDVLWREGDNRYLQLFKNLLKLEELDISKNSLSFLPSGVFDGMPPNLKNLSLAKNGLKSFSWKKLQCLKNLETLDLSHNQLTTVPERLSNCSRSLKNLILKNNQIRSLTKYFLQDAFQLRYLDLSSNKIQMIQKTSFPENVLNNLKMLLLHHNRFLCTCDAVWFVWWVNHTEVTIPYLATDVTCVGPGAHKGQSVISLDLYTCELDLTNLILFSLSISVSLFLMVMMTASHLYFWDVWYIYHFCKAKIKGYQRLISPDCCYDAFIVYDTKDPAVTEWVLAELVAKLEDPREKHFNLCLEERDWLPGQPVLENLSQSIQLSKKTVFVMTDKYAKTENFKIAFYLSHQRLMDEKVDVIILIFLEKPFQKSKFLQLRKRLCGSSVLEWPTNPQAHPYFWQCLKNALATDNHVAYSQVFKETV
Briefly: TLR7 inhibition reporter assay (HEK-Blue cells, SEAP reporter, gardiquimod stimulation). As to conditions: HEK-Blue cells overexpressing human TLR7, SEAP reporter, gardiquimod 7.5 μM. In outline: as §1
A general note: A reporter such as luciferase makes a cellular process visible.

For experiment [3], the target named is T3, human TLR8 (Homo sapiens, UniProt Q9NR97).
T3 construct: host or cells: HEK-Blue cells
T3 sequence (Q9NR97 27-1041): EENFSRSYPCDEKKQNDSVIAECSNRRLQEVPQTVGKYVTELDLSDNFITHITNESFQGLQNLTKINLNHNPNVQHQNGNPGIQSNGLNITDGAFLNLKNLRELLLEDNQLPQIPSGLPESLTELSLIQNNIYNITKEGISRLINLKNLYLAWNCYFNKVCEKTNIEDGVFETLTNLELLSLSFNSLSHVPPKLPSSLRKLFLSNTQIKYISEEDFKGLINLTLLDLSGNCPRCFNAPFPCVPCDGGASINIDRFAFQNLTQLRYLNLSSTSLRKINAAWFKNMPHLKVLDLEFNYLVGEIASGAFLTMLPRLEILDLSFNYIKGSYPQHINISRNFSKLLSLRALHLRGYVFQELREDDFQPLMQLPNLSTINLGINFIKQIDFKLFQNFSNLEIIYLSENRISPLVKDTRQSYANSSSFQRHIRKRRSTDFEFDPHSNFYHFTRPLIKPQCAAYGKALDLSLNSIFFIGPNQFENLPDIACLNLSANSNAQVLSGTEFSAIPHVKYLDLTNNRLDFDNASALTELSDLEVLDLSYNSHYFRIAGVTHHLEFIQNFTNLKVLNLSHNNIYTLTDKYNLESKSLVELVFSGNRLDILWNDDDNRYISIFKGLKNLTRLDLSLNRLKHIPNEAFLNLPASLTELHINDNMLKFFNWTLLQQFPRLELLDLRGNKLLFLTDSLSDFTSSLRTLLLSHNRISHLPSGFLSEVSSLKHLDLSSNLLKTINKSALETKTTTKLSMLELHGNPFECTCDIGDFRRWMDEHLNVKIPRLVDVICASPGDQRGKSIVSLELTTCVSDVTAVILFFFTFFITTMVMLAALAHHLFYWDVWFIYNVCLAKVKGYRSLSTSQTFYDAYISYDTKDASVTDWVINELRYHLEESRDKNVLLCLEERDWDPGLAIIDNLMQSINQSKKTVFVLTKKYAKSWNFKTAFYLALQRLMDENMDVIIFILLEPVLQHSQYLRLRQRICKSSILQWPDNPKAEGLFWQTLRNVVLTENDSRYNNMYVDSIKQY
Briefly: TLR8 inhibition reporter assay (HEK-Blue cells, SEAP reporter, R848 stimulation). The settings on record: HEK-Blue cells overexpressing human TLR8, SEAP reporter, R848 15.9 μM. In outline:
as §1

pIC50: −log10 of the molar value.

For `COc1cc(-c2[nH]c3ccc(C4CC5CN(CC(=O)N(C)C)CC5C4)cc3c2C(C)C)cn2ncnc12` (stereo not drawn) [Example 509], the pIC50 – broadly, −log10 of the IC50, conventionally taken in molar units – in experiment [1] is 5.63; in experiment [2], 9.57; in experiment [3] it was 8.62.

`COc1ccc(-c2[nH]c3ccc(C4CCCN(C(=O)CN(C)C)C4)cc3c2C(C)C)cc1OC` (stereo not drawn) [Example 195]: the pIC50 in experiment [1] was 5.66; in experiment [2], 7.70; in experiment [3], 7.37.

Consider `COc1cc(-c2[nH]c3ccc(CC4CN(CC#N)C4)cc3c2C(C)C)cn2ncnc12` [Example 432], for which the pIC50 in experiment [1] was 5.27; in experiment [2], 8.10; in experiment [3], 7.31.

On to `COc1cc(-c2[nH]c3ccc(C4CCC(NS(C)(=O)=O)CC4)cc3c2C(C)C)cn2ncnc12` (stereo not drawn) [Example 117, N-(4-(3-isopropyl-2-(8-methoxy-[1,2,4]triazolo[1,5-a]pyridin-6-yl)-1H-indol-5-yl)cyclohexyl)methanesulfonamide], for which the pIC50 was 4.85 in experiment [1], 9.15 in experiment [2] and 8.01 in experiment [3].

Take `Cc1cc(-c2[nH]c3ccc([C@@H]4C[C@H]4C(=O)N(C)C4CCNCC4)cc3c2C(C)C)ccn1` [Example 462]: the pIC50 was 6.94 in experiment [1], 7.60 in experiment [2] and 7.57 in experiment [3].

For the compound `Cc1cc(-c2[nH]c3ccc(C4CCC(NC5CC5)CC4)cc3c2C(C)C)cn2ncnc12` (single isomer, unassigned) [Example 15], the results for the pIC50 in experiment [1], in experiment [2] and in experiment [3] were 5.44, 8.40 and 8.05, respectively.

On to `CN[C@@H](C)C(=O)N1CCCC(c2ccc3[nH]c(-c4cc(C)nc(C)c4)c(C(C)C)c3c2)C1` (stereo partly drawn) [Example 216], for which the pIC50 in experiment [1] was 6.52; in experiment [2], 8.15; in experiment [3] it was 7.74.

In the case of `CNC1CCC(c2ccc3[nH]c(-c4cc(C)nc(C)c4)c(C(C)C)c3c2)CC1` (single isomer, unassigned) [Example 52], the pIC50 in experiment [1] was 6.48; in experiment [2] it was 9.38; in experiment [3] it was 8.74.

Take `CNC1CCC(c2ccc3[nH]c(-c4cn5cnnc5c(C)c4C)c(C(C)C)c3c2)CC1` (stereo not drawn) [Example 530]: the pIC50 in experiment [1] is 6.16; in experiment [2], 8.70; in experiment [3] it was 7.92.

With `Cc1cc(-c2[nH]c3ccc(C4CCC(NC5(C)COC5)CC4)cc3c2C(C)C)cn2ncnc12` (single isomer, unassigned) [Example 46], the values for the pIC50 in experiment [1], in experiment [2] and in experiment [3] were 5.82, 10.00 and 9.08, respectively.

On to `COc1cc(-c2[nH]c3ccc(C4CCCN(C5CCOCC5)C4)cc3c2C(C)C)cn2ncnc12` (stereo not drawn) [Example 244], for which the pIC50 is 5.92 in experiment [1], 8.40 in experiment [2] and 9.16 in experiment [3].

In the case of `CNC(=O)CN1CCOC(c2ccc3[nH]c(-c4cc(C)c5ncnn5c4)c(C(C)C)c3c2)C1` (stereo not drawn) [Example 317], the pIC50 is < 4.30 in experiment [1], 7.92 in experiment [2] and 7.05 in experiment [3].

In the case of `Cc1cc(-c2[nH]c3ccc(C4CCC(N(C)C5CC5)CC4)cc3c2C(C)C)cn2ncnc12` (single isomer, unassigned) [Example 9], the pIC50 in experiment [1] was 5.73; in experiment [2], 9.44; in experiment [3], 8.74.

Take `CCN(CC)CC(=O)NC1CCC(c2ccc3[nH]c(-c4cn5ncnc5c(C)c4C)c(C(C)C)c3c2)CC1` (stereo not drawn) [Example 126]: the pIC50 was < 4.30 in experiment [1], 9.29 in experiment [2] and 8.64 in experiment [3].

As for `Cc1c(-c2[nH]c3ccc(CC4CN(CCS(C)(=O)=O)C4)cc3c2C(C)C)cn(C)c(=O)c1C` [Example 418], the pIC50 in experiment [1] was 5.04; in experiment [2], 7.11; in experiment [3], 8.15.

On to `Cc1cc(-c2[nH]c3ccc(C4CN5CCC4CC5)cc3c2C(C)C)cn2ncnc12` (stereo not drawn) [Example 365], for which the pIC50 was 6.13 in experiment [1], 9.66 in experiment [2] and 8.80 in experiment [3].

As for `COc1cc(-c2[nH]c3ccc(C4CCCN(C5COC5)C4)cc3c2C(C)C)cn2ncnc12` (stereo not drawn) [Example 240], the pIC50 was 4.94 in experiment [1], 8.30 in experiment [2] and 8.38 in experiment [3].

For the compound `Cc1cc(-c2[nH]c3ccc(C4CN5CCC4CC5)cc3c2C(C)C)cn2ncnc12` (stereo not drawn) [Example 364], the values for the pIC50 in experiment [1], in experiment [2] and in experiment [3] were 5.98, 9.19 and 8.42, respectively.

As to `Cc1c(-c2[nH]c3ccc(C4CCCN(C(=O)CN(C)C)C4)cc3c2C(C)C)cn2ncnc2c1C` (stereo not drawn) [Example 193], the pIC50 in experiment [1] was 5.19; in experiment [2], 9.00; in experiment [3], 8.54.

As to `CC(C)c1c(-c2ccnc3[nH]ncc23)[nH]c2ccc(C3CCC(OC4CCNCC4)CC3)cc12` (stereo not drawn) [Example 502], the pIC50 in experiment [1] was 6.50; in experiment [2] it was 7.15; in experiment [3] it was 7.64.

For `Cc1c(-c2[nH]c3ccc(CC4CN(C5CCOCC5)C4)cc3c2C(C)C)cn(C)c(=O)c1C` [Example 416], the figures for the pIC50 in experiment [1], in experiment [2] and in experiment [3] were 5.39, 6.94 and 8.19, respectively.
